In patent publication US20200390755A1, “COMPOUND FOR TREATING NERVOUS SYSTEM DISEASES AND USE THEREOF” (SHAANXI MICOT TECHNOLOGY CO., LTD., priority 2018, published 2020):

How the values were obtained:
[1] = system: WT mice; experiment: In vivo MRI scan and brain volume measurement, WT mice; parameters: species or system mouse; details: 5 mg/kg/d, administered until 24 weeks, n = 4
Protocol: 7-week-old N171-82Q HD male mice were paired with female B6C3F1/J hybrid mice to obtain newborn mice. From 21 days of age, male mice were housed in separate cages. 0.5 cm of mouse tail tissue was removed to extract DNA to determine the genotype of the mouse, such that N171-82Q HD mice and WT mice needed for the experiment were obtained. The mice were randomly divided into WT Vehicle group (normal mice), WT test compound group (administration group of normal mice, 5 mg/kg/d, n=10), HD Vehicle group (blank group of HD mice, n=15), HD test compound group (administration groups 1-5 of HD mice, 5 mg/kg/d, n=10). The test compound was suspended in 1% CMC-Na solution and administered by intragastric administration until the end of the study. The weights of the mice were measured every week. Behavioral tests were performed at 12 weeks, 18 weeks, and 24 weeks of age to investigate motor function. At 20 weeks, 3 samples of tissue from each group were used for western blotting and immunohistochemistry. At 24 weeks, MRI scans were performed. At the end of the study, the effect of the test compound on the mortality of mice was evaluated. The WT Vehicle group, WT test compound group, HD Vehicle group and HD test compound group were administered until 24 weeks, and 4 mice in each group were taken for in vivo MRI scanning and brain volume measurement. A 9.4 T MRI scanner equipped with three-axis gradient and animal imaging probes was used. The mice were anesthetized with 1% isoflurane. The breath of mice was monitored, and constant temperature was maintained throughout the scan. Three-dimensional T2 weighted fast spin echo sequence technology was used to obtain images. The imaging resolution and contrast of this technology were sufficient to automatically describe the volume of the mouse brain and substructures. […] These transformations encoded morphological differences between images and analyzed based on deformation morphological measurements (DBM) to detect regional changes in brain volume. The volume of the whole brain (Brain), […] was analyzed. […]

[2] = system: WT mice; experiment: Rotarod experiment, WT mice; format: in vivo, mouse; details: 5 mg/kg/d intragastric
Protocol: 7-week-old N171-82Q HD male mice were paired with female B6C3F1/J hybrid mice to obtain newborn mice. From 21 days of age, male mice were housed in separate cages. 0.5 cm of mouse tail tissue was removed to extract DNA to determine the genotype of the mouse, such that N171-82Q HD mice and WT mice needed for the experiment were obtained. The mice were randomly divided into WT Vehicle group (normal mice), WT test compound group (administration group of normal mice, 5 mg/kg/d, n=10), HD Vehicle group (blank group of HD mice, n=15), HD test compound group (administration groups 1-5 of HD mice, 5 mg/kg/d, n=10). The test compound was suspended in 1% CMC-Na solution and administered by intragastric administration until the end of the study. The weights of the mice were measured every week. Behavioral tests were performed at 12 weeks, 18 weeks, and 24 weeks of age to investigate motor function. At 20 weeks, 3 samples of tissue from each group were used for western blotting and immunohistochemistry. At 24 weeks, MRI scans were performed. At the end of the study, the effect of the test compound on the mortality of mice was evaluated. The software Sigmaplot 13.0 was used for statistical analysis of the data, and the data of each group was expressed as mean standard error (x±SEM). Behavioral test results were analyzed using two-way (genotype and processing factor) ANOVA and post-ho tests, the comparison and statistics of weight data were performed using two-way (genotype and age) ANOVA of repeated measures, and mortality was counted using Kaplan-Meier method. Other measurement data were analyzed by one-way ANOVA. P<0.05 was considered statistically significant. The motor function of mice was evaluated by the rotarod experiment and three types of balance beam experiments. The shorter the time for mouse to cross the balance beam, and the longer the time to drop, the stronger the coordination ability of the mouse. […] The time the mouse remained on the rod, i.e., drop latent period, was recorded to indicate its motor coordination ability. […]

## O=c1cc(-c2ccc(N3CCCCC3)cc2)oc2c(O)c(O)ccc12 [Example 1, 7,8-dihydroxy-2-(4-(piperidin-1-yl)phenyl)-4H-chromen-4-one]
[1]
  MRI volume, Neurocortex: 20.11 ± 0.377 mm^3
  MRI volume, Striatum: 88.99 ± 0.985 mm^3
  MRI volume, Whole brain: 489.08 ± 7.14 mm^3
[2]; 12 w
  Time to drop (drop latent period), rotarod: 98.33 ± 30.03 s
[2]; 18 w
  Time to drop (drop latent period), rotarod: 78.97 ± 23.84 s
[2]; 24 w
  Time to drop (drop latent period), rotarod: 73.72 ± 18.25 s
